Measurements: article PMC4963206 (ChemMedChem, 2016)
pIC50: −log10 of the molar value. Where two headings read alike, the source gives them in different places.

How the values were obtained:
AR230 cells = assay: Phenotypic screening / cytotoxicity in CML cell line AR230; assay type: cell-based; conditions: read-out: IC50 AR230
AR230^R cells = assay: Phenotypic screening / cytotoxicity in TKI-resistant CML cell line AR230^R; assay type: cell-based; conditions: for Fold Difference: Table 3, AR230 vs AR230^R; for pIC50: read-out: IC50 AR230^R

In the case of `O=C(O)c1ccc(N(Cc2ccc(N3CCOCC3)cc2)C(=O)CN(C2CC2)S(=O)(=O)c2c(F)c(F)c(F)c(F)c2F)cc1` [PSL-3-089], the pIC50 (AR230 cells; Table 3) was 5.13, the “Fold Difference” value (AR230^R cells) was 1.42 and the pIC50 (AR230^R cells; Table 3) was 5.28.
For `O=C(O)c1ccc(N(Cc2ccc(C3CCOCC3)cc2)C(=O)CN(C2CC2)S(=O)(=O)c2c(F)c(F)c(F)c(F)c2F)cc1` [DR-4-042], the pIC50 (AR230 cells; Table 3) was 5.33, the “Fold Difference” value (AR230^R cells) was 1.12 and the pIC50 (AR230^R cells; Table 3) was 5.38.
For `O=C(O)c1ccc(N(Cc2ccc(C3CCCC3)cc2)C(=O)CN(C2CC2)S(=O)(=O)c2cccnc2)cc1` [RG1-066, 4-(N-(4-Cyclopentylbenzyl)-2-(N-cyclopropylpyridine-3-sulfonamido)acetamido)benzoic acid], the pIC50 (AR230 cells) was < 4.49 and the pIC50 (AR230^R cells) was < 4.49.
`Cc1c(F)c(F)c(S(=O)(=O)N(CC(=O)N(Cc2ccc(C3CCCC3)cc2)c2ccc(C(=O)O)cc2)C2CC2)c(F)c1F` [AM1-030, 4-(N-(4-Cyclopentylbenzyl)-2-((N-cyclopropyl-2,3,5,6-tetrafluoro-4-methylphenyl)sulfonamido)acetamido)benzoic acid] was tested, and the pIC50 (AR230 cells; Table 4) was < 4.49 and the pIC50 (AR230^R cells; Table 4) was 4.73.
Work on `CC(C)N(CC(=O)N(Cc1ccc(C2CCCCC2)cc1)c1ccc(C(=O)O)cc1)S(=O)(=O)c1c(F)c(F)c(F)c(F)c1F` [PSL-3-40, 4-(N-(4-cyclohexylbenzyl)-2-(2,3,4,5,6-pentafluoro-N-isopropylphenylsulfonamido)acetamido)benzoic acid] yielded a pIC50 (AR230 cells) of 5.06 and a pIC50 (AR230^R cells) of 4.85.
In the case of `O=C(O)c1ccc(N(Cc2ccc(C3CCCC3)cc2)C(=O)CN(C2CC2)S(=O)(=O)c2ccc(F)nc2)cc1` [AM1-116, 4-(N-(4-Cyclopentylbenzyl)-2-((N-cyclopropyl-6-fluoropyridine)-3-sulfonamido)acetamido)benzoic acid], the pIC50 (AR230 cells; Table 4) was < 4.49 and the pIC50 (AR230^R cells; Table 4) was < 4.49.
With `O=C(O)c1ccc(N(Cc2ccc(Cl)cc2)C(=O)CN(C2CC2)S(=O)(=O)c2c(F)c(F)c(F)c(F)c2F)cc1` [DR-4-003, 4-(N-(4-Chlorobenzyl)-2-((N-cyclopropyl-2,3,4,5,6-pentafluorophenyl)sulfonamido)acetamido)benzoic acid] the pIC50 (AR230 cells; Table 3) was 5.39, the “Fold Difference” value (AR230^R cells) was 2.41 and the pIC50 (AR230^R cells; Table 3) was 5.77.
For `O=C(O)c1ccc(N(Cc2ccc(C3CCCCC3)cc2)C(=O)CN(C2CC2)S(=O)(=O)c2c(F)c(F)c(F)c(F)c2F)cc1` [DR-3-036], the pIC50 (AR230 cells; Table 2) was 5.37 and the pIC50 (AR230^R cells; Table 2) was 5.59.
`O=C(O)c1ccc(N(Cc2ccc(C3CC3)cc2)C(=O)CN(C2CC2)S(=O)(=O)c2c(F)c(F)c(F)c(F)c2F)cc1` [PSL-3-132] was tested, and the pIC50 (AR230 cells; Table 3) was 5.38, the “Fold Difference” value (AR230^R cells) was 1.75 and the pIC50 (AR230^R cells; Table 3) was 5.62.
For `CC1(C)CCC(c2ccc(CN(C(=O)CN(C3CC3)S(=O)(=O)c3c(F)c(F)c(F)c(F)c3F)c3ccc(C(=O)O)cc3)cc2)CC1` [DR-3-119, 4-(2-((N-Cyclopropyl-2,3,4,5,6-pentafluorophenyl)sulfonamido)-N-(4-(4,4-dimethylcyclohexyl)benzyl)acetamido)benzoic acid], the pIC50 (AR230 cells; Table 3) was 5.24, the “Fold Difference” value (AR230^R cells) was 1.81 and the pIC50 (AR230^R cells; Table 3) was 5.49.
With `O=C(O)c1ccc(N(Cc2ccc(C3CCCC3)cc2)C(=O)CN(C2CC2)S(=O)(=O)c2c(F)c(F)c(Br)c(F)c2F)cc1` [AM1-077, 4-(N-(4-Cyclopentylbenzyl)-2-((N-cyclopropyl-2,3,5,6-tetrafluoro-4-bromophenyl)sulfonamido)acetamido)benzoic acid] the pIC50 (AR230 cells; Table 4) was 4.60 and the pIC50 (AR230^R cells; Table 4) was 4.69.
`O=C(O)c1ccc(N(Cc2ccc(C3CCCC3)cc2)C(=O)CN(C2CC2)S(=O)(=O)c2c(F)c(F)c(F)c(F)c2F)cc1` [DR-3-093, 4-(N-(4-Cyclopentylbenzyl)-2-((N-cyclopropyl-2,3,4,5,6-pentafluorophenyl)sulfonamido)acetamido)benzoic acid] was tested, and the pIC50 (AR230 cells; Table 3) was 5.48, the “Fold Difference” value (AR230^R cells) was 2.75 and the pIC50 (AR230^R cells; Table 3) was 5.92.
